# Source: US7498343B2, “Mycobacterial inhibitors” (priority 2002, dated 2009)
# Where two headings read alike, the source gives them in different places.
# Assays:
# M. Smegmatis ATCC607 = assay: In-vitro method for testing compounds for anti-bacterial activity against strain M. smegmatis ATCC607 (Alamar Blue growth inhibition); type: cell-based; details: pIC50 = -logIC50, IC50 in M, 50% inhibitory concentration for bacterial growth, 48 hours incubation; for IC50: Mycolicibacterium smegmatis, ATCC607, 48 h
# Summary of the method: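 About 250 CFU/well M. smegmatis ATCC607 in Mueller-Hinton broth exposed to five-fold serial compound dilutions, 48 h at 37 °C, humidified 5% CO2. Growth read by Alamar Blue fluorescence (ex 530/em 590 nm) after 2 h further incubation; % growth inhibition calculated.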
# [1] = system: Mycobacterium tuberculosis (strain H37RV); assay: In-vitro method for testing compounds against M. tuberculosis (resazurin growth inhibition, MIC); type: cell-based; details: MIC data representing IC90's, 7 days incubation, resazurin fluorescence
# [2] = Mycobacterium tuberculosis, H37RV, 168 h, read-out: MIC
SMILES,pIC50 (M. Smegmatis ATCC607; M. smegmatis ATCC607),MIC [1] [microgram/ml],"IC50 (M. Smegmatis ATCC607; read-out: pIC50, M. smegmatis ATCC607 (converted)) [nM]","MIC [1, 2] [µg/mL]","IC50 (M. Smegmatis ATCC607; M. smegmatis ATCC607, read-out: pIC50 (converted)) [nM]"
COc1nc2ccc(Br)cc2cc1C(c1ccccc1)C(O)(CCN(C)C)c1ccc2ccccc2c1 (racemic) [Compound 46],6.4,1.76,,,
COc1nc2ccc(F)cc2cc1C(c1ccccc1)C(O)(CCN(C)C)c1cc(F)cc(F)c1 (racemic) [Compound 207],5.2,48.05,,,
"COc1nc2cc(C)c(Br)cc2cc1C(c1ccccc1)C(O)(CCN(C)C)c1cccc2ccccc12 (single isomer, unassigned) [Compound 225]",6.6,1.80,,,
"COCCOc1nc2ccc(Br)cc2cc1C(c1ccccc1)C(O)(CCN(C)C)c1cccc(F)c1 (single isomer, unassigned) [Compound 165]",6.6,2.26,,,
COc1nc2ccc(Br)cc2cc1C(c1ccccc1)C(O)(CCN(C)C)c1ccc(F)c(F)c1 (racemic) [Compound 195],6.5,6.82,,,
COc1nc2ccc(Br)cc2cc1C(c1ccccc1)C(O)(CCN1CCCCC1)c1ccc2cc(Br)ccc2c1 (centres unmarked) [Compound 166],4.1,67.45,,,
"COc1nc2ccc(Br)cc2cc1C(c1ccccc1)C(O)(CCCCN(C)C)c1ccc2ccccc2c1 (single isomer, unassigned) [Compound 191]",6.5,1.85,,,
"COc1nc2cc(C)c(Br)cc2cc1C(c1ccccc1)C(O)(CCN(C)C)c1cc(F)cc(F)c1 (single isomer, unassigned) [Compound 227]",7.5,1.76,,,
"COc1nc2ccc(Br)cc2cc1C(c1ccccc1)C(O)(CN(C)C)c1ccccc1 (single isomer, unassigned) [Compound 62]",5.9,7.79,,,
COc1nc2ccc(Br)cc2cc1C(c1ccccc1)C(O)(CCN(C)C)c1ccc(N2CCOCC2)cc1 (racemic) [Compound 90],5.3,59.06,,,
"COc1ccc2cc(C(O)(CCN(C)C)C(c3ccccc3)c3cc4cc(Br)ccc4nc3OC)ccc2c1 (single isomer, unassigned) [Compound 162]",7.0,9.28,,,
COc1nc2ccc(Br)cc2cc1C(c1ccccc1)C(O)(CCN1CCN(C)CC1)c1ccc2ccccc2c1 (racemic) [Compound 136],6.2,16.81,,,
"COc1nc2ccc(Br)cc2cc1C(c1ccc(Cl)cc1)C(O)(CCN(C)C)c1ccccc1 (single isomer, unassigned) [Compound 36]",6.4,5.40,,,
COc1nc2ccc(F)cc2cc1C(c1ccccc1)C(O)(CCN(C)C)c1cc(F)cc(F)c1 (racemic) [Compound 208],7.9,0.38,,,
"COc1nc2ccc(Cl)cc2cc1C(c1ccccc1)C(O)(CCN(C)C)c1ccccc1 (single isomer, unassigned) [Compound 31]",5.8,7.31,,,
"COc1nc2ccc(Cl)cc2cc1C(c1ccccc1)C(O)(CCN(C)C)c1cccc2ccccc12 (single isomer, unassigned) [Compound 120]",5.9,40.60,,,
"COc1nc2ccc(Br)cc2cc1[C@@H](c1ccccc1)[C@@](O)(CCN(C)C)c1cccc2ccccc12 [Compound 12, (1R,2S) 1-(6-bromo-2-methoxy-quinolin-3-yl)-4-dimethylamino-2-naphthalen-1-yl-1-phenyl-butan-2-ol]",,,2,0.07,
COc1nc2ccc(Br)cc2cc1C(c1ccccc1)C(O)(CCN(C)C)c1cccc(F)c1 (centres unmarked) [Compound 109],8.2,0.33,,,
"COc1nc2ccc(Br)cc2cc1C(c1ccccc1)C(O)(CCCN(C)C)c1cccc2ccccc12 (single isomer, unassigned) [Compound 199]",6.5,47.47,,,
"COc1nc2ccc(Br)cc2cc1C(c1ccccc1)C(O)(CCN(C)C)c1c(F)cccc1F (single isomer, unassigned) [Compound 167]",5.5,43.01,,,
"CN(C)CCC(O)(c1ccccc1)C(c1ccccc1)c1cc2cc(Br)ccc2n(C)c1=O (single isomer, unassigned) [Compound 107]",5.8,44.13,,,
"COc1nc2ccc(Br)cc2cc1C(c1ccccc1)C(O)(CCN(C)C)c1cc(Br)cc2ccccc12 (single isomer, unassigned) [Compound 143]",6.9,50.39,,,
COc1nc2ccc(Br)cc2cc1C(c1ccccc1)C(O)(CCn1ccnc1)c1ccccc1 (centres unmarked) [Compound 49],5.4,,,52.9,

SMILES,pIC50 (M. Smegmatis ATCC607; M. smegmatis ATCC607),MIC [1] [microgram/ml],"IC50 (M. Smegmatis ATCC607; read-out: pIC50, M. smegmatis ATCC607 (converted)) [nM]","MIC [1, 2] [µg/mL]","IC50 (M. Smegmatis ATCC607; M. smegmatis ATCC607, read-out: pIC50 (converted)) [nM]"
COc1nc2ccc(Br)cc2cc1C(c1ccccc1)C(O)(CCN(C)C)c1cccc2ccccc12 (centres unmarked) [Compound 14],6.8,8.80,,,
"COc1nc2ccc(Br)cc2cc1C(c1ccccc1)C(O)(CC[N+](C)(C)[O-])c1cccc2ccccc12 (single isomer, unassigned) [Compound 100]",7.1,45.40,,,
"COc1nc2ccc(Br)cc2cc1C(c1ccccc1)C(O)(CCN1CCOCC1)c1cccc2ccccc12 (single isomer, unassigned) [Compound 158]",5.3,59.76,,,
COc1nc2ccccc2cc1C(c1ccccc1)C(O)(CCN(C)C)c1cccc(F)c1 (racemic) [Compound 94],7.9,1.77,,,
CCN(CC)CCC(O)(c1ccccc1)C(c1ccccc1)c1cc2cc(Br)ccc2nc1OC (centres unmarked) [Compound 19],6.5,6.72,,,
"COc1nc2ccc(-c3ccc(CO)o3)cc2cc1C(c1ccccc1)C(O)(CCN(C)C)c1cccc2ccccc12 (single isomer, unassigned) [Compound 212]",6.0,9.08,,,
COc1nc2ccc(Br)cc2cc1C(c1ccccc1)C(O)(CCN(C)C)c1cccc(F)c1 (centres unmarked) [Compound 38],7.9,8.30,,,
"COc1nc2ccc(Cl)cc2cc1C(c1ccccc1)C(O)(CCN(C)C)c1cccc2ccccc12 (single isomer, unassigned) [Compound 119]",7.8,10.20,,,
CNCCC(O)(c1cccc2ccccc12)C(c1ccccc1)c1cc2cc(Br)ccc2nc1OC (centres unmarked) [Compound 56],,,,43,63.1
"COc1nc2ccc(C)cc2cc1C(c1ccccc1)C(O)(CCN(C)C)c1ccccc1 (single isomer, unassigned) [Compound 23]",6.4,8.79,,,
"COc1nc2ccc(Br)cc2cc1C(c1ccccc1)C(O)(CCN1CCCC1)c1ccc2ccccc2c1 (single isomer, unassigned) [Compound 144]",7.0,52.46,,,
"COc1nc2ccc(-c3cc4ccccc4s3)cc2cc1C(c1ccccc1)C(O)(CCN(C)C)c1cccc(F)c1 (single isomer, unassigned) [Compound 204]",5.4,9.14,,,
"COc1nc2ccc(Br)cc2cc1C(c1ccccc1)C(O)(CCN(C)C)C1CCN(C(=O)c2ccccc2)CC1 (single isomer, unassigned) [Compound 202]",4.8,48.98,,,
"COc1nc2ccc(Br)cc2cc1C(c1ccccc1)C(O)(CCCN(C)C)c1ccc2ccccc2c1 (single isomer, unassigned) [Compound 125]",4.4,18.01,,,
COc1nc2ccc(Br)cc2cc1C(c1ccccc1)C(O)(CCN(C)C)c1cc(F)cc(F)c1 (centres unmarked) [Compound 115],8.6,0.07,,,
"COc1nc2ccc(Br)cc2cc1C(c1ccccc1)C(O)(CCN(C)C)c1ccsc1 (single isomer, unassigned) [Compound 24]",7.2,1.62,,,
"COc1nc2ccc(Br)cc2cc1C(c1ccccc1)C(O)(CCN1CCN(C)CC1)c1cc(Br)cc2ccccc12 (single isomer, unassigned) [Compound 152]",5.8,10.93,,,
CCN(C)CCC(O)(c1ccc2ccccc2c1)C(c1ccccc1)c1cc2cc(Br)ccc2nc1OC (centres unmarked) [Compound 141],7.3,,,9.03,
"COc1nc2ccc(Br)cc2cc1C(c1ccccc1)C(O)(CCCN(C)C)c1cccc2ccccc12 (single isomer, unassigned) [Compound 186]",4.5,56.96,,,
COc1nc2ccc(Br)cc2cc1C(c1ccccc1)C(O)(CCN(C)C)c1ccc(F)c(F)c1 (racemic) [Compound 196],6.6,1.71,,,
COc1nc2ccc(Br)cc2cc1C(c1ccccc1)C(O)(CCN(C)C)c1cccc2ccccc12 (centres unmarked) [Compound 15],6.5,2.78,,,
COc1nc2ccc(Br)cc2cc1C(c1ccccc1)C(O)(CCN(C)C)c1cc(F)cc(F)c1 (centres unmarked) [Compound 118],9.1,0.01,,,
COc1nc2ccc(Br)cc2cc1C(c1ccccc1)C(O)(CCN1CCOCC1)c1ccccc1 (racemic) [Compound 123],4.2,54.75,,,
